From patent publication US12702689B2, “Anti-inflammatory compositions, and uses thereof” (P.L. THOMAS & CO., INC., priority 2022, dated 2026)

Key:
Type in all cases: in vivo, BALB/cJ female mice
[1] = tested on: IL-5, IL-4, IL-13, IL-10 in BAL fluid; test: BAL fluid cytokine markers, multiplex flow-cytometry based assay; conditions: OVA+AKBA mice, 100 mg/kg AKBA
Source text: Allergic airway phenotype was induced by using an ovalbumin (OVA, hen egg) sensitization and challenge model as previously described with modifications [Beigelman, A. et al. Azithromycin attenuates airway inflammation in a noninfectious mouse model of allergic asthma. Chest 136, 498-506 (2009)]. Briefly (FIG. 1), two groups of mice (OVA control and OVA+AKBA) were sensitized with intraperitoneal ovalbumin plus alum on days 0 and 7, challenged for 3 days (day 14 to day 17) via nebulized OVA at 1% in PBS for 30 mins, and harvested 48 hr after final challenge. Supplementation groups (OVA+AKBA) were given 100 mg/kg of water soluble AKBA (pH 7) (PLT Health Solutions, Morristown, NJ, US) in autoclaved mouse water, via gavage, every other day for 10 days and then every day for the remainder of the experiment (9 days). OVA control and naïve mouse continued to receive normal autoclaved mouse water. Mice were weighted at the beginning and end of the experiment. Experiments involving AKBA were conducted twice, with the first group containing 5 mice per group and the second containing 15 mice per group (5 per group for naive). Experiment procedures were identical, and results were pooled for n=20 (n=5 for naive). Animal protocol 102063-0522 was approved by the University of Connecticut Health IACUC board. Experiments were repeated, as stated above, with oral gavages of B. pseudolongum culture in place of AKBA supplementation. Groups were designated as OVA control (n=10), OVA+B. pseudolongum (n=10) and naïve (n=5). OVA+B. pseudolongum groups were given 10^8 CFU B. pseudolongum in culture medium via gavage, every other day for 10 days and then every day for the remainder of the experiment (9 days). Multiple inflammatory mediators were analyzed in the cell-free supernatant of BAL fluid using a multiplex flow-cytometry based assay according to manufacturer's recommendations (BioLegend, San Diego, CA, US). Volume of cell free fluid was concentrated using a 50K centrifugal filter spun at 3000 g for 10-15 minutes. Samples were run on a ZE5 Cell Analyzer (Bio-Rad, Hercules, CA, US) and sample processing was conducting using software provided from the kit's manufacturer (BioLegend, San Diego, CA, US). Serum specific ovalbumin IgE levels was detected by using an ELISA kit with a sensitivity of 3.8 ng/mL per manufacturer's protocol (Cayman Chemical Company, Ann Arbor, MI, US).

[2] = tested on: OVA-specific IgE; test: Serum OVA-specific IgE, anti-OVA ELISA; conditions: OVA+AKBA mice, 100 mg/kg AKBA; at sacrifice; p=0.3223 vs OVA control
[3] = tested on: gut microbiome; test: Gut microbiome profiling of fecal pellets by 16S rRNA sequencing
Source text: Allergic airway phenotype was induced by using an ovalbumin (OVA, hen egg) sensitization and challenge model as previously described with modifications [Beigelman, A. et al. Azithromycin attenuates airway inflammation in a noninfectious mouse model of allergic asthma. Chest 136, 498-506 (2009)]. Briefly (FIG. 1), two groups of mice (OVA control and OVA+AKBA) were sensitized with intraperitoneal ovalbumin plus alum on days 0 and 7, challenged for 3 days (day 14 to day 17) via nebulized OVA at 1% in PBS for 30 mins, and harvested 48 hr after final challenge. Supplementation groups (OVA+AKBA) were given 100 mg/kg of water soluble AKBA (pH 7) (PLT Health Solutions, Morristown, NJ, US) in autoclaved mouse water, via gavage, every other day for 10 days and then every day for the remainder of the experiment (9 days). OVA control and naïve mouse continued to receive normal autoclaved mouse water. Mice were weighted at the beginning and end of the experiment. Experiments involving AKBA were conducted twice, with the first group containing 5 mice per group and the second containing 15 mice per group (5 per group for naive). Experiment procedures were identical, and results were pooled for n=20 (n=5 for naive). Animal protocol 102063-0522 was approved by the University of Connecticut Health IACUC board. Experiments were repeated, as stated above, with oral gavages of B. pseudolongum culture in place of AKBA supplementation. Groups were designated as OVA control (n=10), OVA+B. pseudolongum (n=10) and naïve (n=5). OVA+B. pseudolongum groups were given 10^8 CFU B. pseudolongum in culture medium via gavage, every other day for 10 days and then every day for the remainder of the experiment (9 days). Fresh fecal pellets were collected upon defecation and stored in sterile RNA-/DNA-/RNAse-/DNAse-free microcentrifuge tubes at the beginning and end of experiment (FIG. 1). Collected pellets were placed at −80° C. for storage following collection. DNA from pellets were extracted using the PowerSoil DNA Isolation Kit (Qiagen, Hilden, Germany) according to the manufacturer's protocol. Amplicon library preparation and V4 region of 16S rRNA gene sequencing were performed at Illumina HiSeq 4000 (Illumina, CA, US) platform. Raw 16S rRNA sequences (150-bp paired-end reads) were initially processed by BaseSpace software (Illumina, CA, US). One mismatch in primer and zero mismatch in barcodes were applied to sample deconvolution. Deconvoluted sequences were further processed using the DADA2 data processing pipeline with default parameters to obtain amplicon sequence variants (ASVs). Final taxonomic assignment was conducted using RDP-classifier (v2.11) with 0.5 confidence value as cut-off. Reads with <0.5 confidence of classification was “unclassified” at a given taxonomical level. ASV counts were converted to relative abundance and agglomerated at the phylum and genus levels using the Phyloseq R package to visualize the microbiome composition in a stacked bar plot. […] Sample reads were rarefied to 10,000 reads to account for uneven sampling depth. Alpha diversity was determined with the richness and Shannon diversity metrics at the ASV level. Wilcoxon sum rank test was performed to compare alpha diversity of stool microbiome between asthma control and AKBA treated mice at day 0 and day 19. Beta diversity was visualized by principal component analysis (PCA). DESeq2, with an adjusted p value<0.05, was used for the differential taxa analysis. All plots were created with “ggplot2” and all analyses were conducted in RStudio version 4.1.0.

[4] = AKBA treated mice, baseline vs endpoint, DESeq p<0.05

SMILES: CC(=O)O[C@@H]1CC[C@@]2(C)[C@@H](CC[C@]3(C)[C@@H]2C(=O)C=C2[C@@H]4[C@@H](C)[C@H](C)CC[C@]4(C)CC[C@]23C)[C@@]1(C)C(=O)O [AKBA, 3-O-acetyl-11-keto-b-boswellic acid]
- IL-10 in BAL fluid ([1]; not significant vs OVA control): 19.77 ± 12.19 ng/mL
- IL-13 in BAL fluid ([1]; not significant vs OVA control): 4.15 ± 3.15 ng/mL
- IL-5 in BAL fluid ([1]; p=0.0079 vs OVA control): 31.39 ± 17.71 ng/mL
- IL-4 in BAL fluid ([1]; p=0.0229 vs OVA control): 9.30 ± 6.67 ng/mL
- serum OVA-specific IgE [2]: 1275.98 ± 503.22 ng/mL
- change in Hyphomicrobium, Solirubrobacter and Steroidobacter [3, 4]: decreases
- change in Lactiplantibacillus, Lacticaseibacillus and Turicibacter [3, 4]: increases
- overall richness and Shannon diversity of gut microbiome, baseline to endpoint ([3]; OVA+AKBA group, 100 mg/kg AKBA): maintained
- Bifidobacterium increase, fold change ([3]; OVA+AKBA group, baseline to endpoint, Wilcoxon p=0.07 vs OVA control): 15.94±15.84 fold
- the 24 genera decreased in OVA control mice (Table 1): decreased in treated group ([3]; OVA+AKBA group, baseline vs end point): None
- relative abundances of Actinobacteria phyla and Bifidobacterium genus vs OVA control mice ([3]; OVA+AKBA mice): significantly higher
